# Tested on: hOC promoter
# Assay: hOC promoter-luciferase reporter activity in transfected cells
# Format: cell-based, human
# Conditions: C4-2B cells
# Excerpt: Plasmid Construction. Genomic DNA was used in the PCR of the 0.8-kb hOC promoter inserting KpnI and XhoI sites, subsequently cloned into pGL3-Basic-luciferase reporter vector (Promega, Madison, Wis.) as described before (9). The deletion constructs, ΔA [374 bp upstream of AP1/VDRE (AV) element], ΔTst-1 (POU-factor Tst-1/Oct-6 binding site), ΔCRE (cAMP-responsive element) and ΔIRF-1 (interferon regulatory factor-i binding site) in hOC promoter/pGL3 were generated by recombinant PCR technique. The point mutation plasmids in CRE (from -643 to -636 in hOC promoter, 5′-[…]-3′) were constructed with a QuikChange Site-Directed Mutagenesis Kit (Stratagene). The mutation constructs (see below) are one-point substitution mutants, Mut1 (-642 G→T), Mut2 (-641 A→C), Mut3 (-640 C→A), Mut4 (-639 C→A) and Mut5 (-638 T→G), a two-point substitution mutant, Mut6 (-640 and -639 CC→AA), and a two-point deletion construct, Mut7 (-640 and -639 CC→XX). The 1.5-kb hBSP promoter construct prepared in the pGL3-luciferase reporter vector has been described previously (36). The single deletion constructs ΔCRE1 (-79 to -72) and ΔCRE2 (-674 to -667), and a double deletion construct ΔCRE2/CRE1 in the hBSP promoter/pGL3-luciferase plasmid were generated by recombinant PCR technique. All plasmid constructs were confirmed by DNA sequencing.
# Transfection and Luciferase Activity Assay. Cells were trypsinized and seeded at a density of 1.5×10^5 cells/well (LNCaP, C4-2B, DU145 and ARCaP) and 1.0×10^5 cells/well (PC3 and MG63) in 12-well plates 24 h before transfection. Plasmid DNAs were introduced into cells by complexing with a commercial reagent DOTAP (Roche Molecular Biochemicals) according to the manufacturer's protocol. Each transfection reaction contained 1.25 μg of tested DNA constructs and 0.25 μg of the transfection efficiency control CMV promoter-driven β-galactosidase plasmid DNA. After 6 h transfection, DNA-liposome mixtures were replaced by fresh T-medium or CM. Tansfected cells were harvested and lysed in 1× Reporter Lysis buffer (Promega) after 36 h additional incubation. Cell lysates were vortexed for 15 s and spun for 10 min. For luciferase activity assay, 20 μl of the lysate supernatant was mixed with 100 μl of the luciferase substrate (Promega) and detected by a luminometer (Monolight 3010, luminometer PharMingen, San Diego, Calif.). For β-galactosidase activity assay, 100 μl of the supernatant was mixed with 100 μl of 2×β-galactosidase substrate [200 mM sodium phosphate buffer, pH 7.3, 2 mM MgCl2, 100 mM β-mercaptoethanol and 1.33 mg/ml o-nitrophenyl-β-D-galactopyranoside (ONPG)], and incubated at 37° C. for 30 min. β-galactosidase activity was detected by Microplate spectrophotometer (Molecular Devices Corp., Sunnyvale, Calif.) at 405 nm wavelength. Data were presented as normalized luciferase activity (means±standard deviations), defined as luciferase activity normalized to internal control β-galactosidase activity for transfection efficiency. All studies were performed in three independent experiments with duplicate assays.
smiles,measurement,setting,value
"O=S(=O)(NCCNCC=Cc1ccc(Br)cc1)c1cccc2cnccc12 [H-89, N-[2-(p-bromocinnamylamino)ethyl]-5-isoquinolinesulfonamide]",ARCaP CM-mediated activation of hOC promoter activity,"H-89 10^−6 M 2 h, then ARCaP CM 15 μg/ml 16 h",inhibited
same,PMA-induced hOC promoter activation,"H-89 10^−6 M 2 h, then PMA 10^−6 M 16 h",not blocked
same,db cAMP-mediated activation of hOC promoter activity,"H-89 10^−6 M 2 h, then db cAMP 10^−3 M 16 h",inhibited
same,CM-induced hOC promoter activity,"H-89 10^−6 M, CM harvested from C4-2B, DU145, PC3 and MG63 cell lines",nearly abolished
same,FSK-stimulated hOC promoter activity,"H-89 10^−8 to 10^−6 M for 2 h, then FSK 10^−6 M 16 h, concentration-dependent",inhibited

# — US20070078085A1, “Methods and compositions for the utilization and targeting of osteomimicry” (priority 2004, published 2007)
